# According to PMC11567856, “A novel peptide‐based tau aggregation inhibitor as a potential therapeutic for Alzheimer's disease and other tauopathies” (Alzheimer's & Dementia, 2024):
# Where a SMILES comes first, the peptide text is derived from it. [ ]: non-standard residue; d: D form.
# Key:
# VQIINK = molecular target: T1, VQIINK (Homo sapiens, UniProt P10636); test: ThT fluorescence, aggregation of VQIINK peptide; assay type: biochemical; conditions: ThT end-point 24 h; 20 µM VQIINK, 20 µM RI‐AG03 (equimolar), 5 µM heparin, pH 7.4; alone or combined with VQIVYK
# T1 construct: ^275VQIINK^280 hexapeptide (motif found in three isoforms)
# Method: Fluorescence was measured (λex = 442 nm, λem = 483 nm), and data were normalized. […] The addition of inhibitor to the growth phase was controlled by adding an equivalent volume of buffer alone.
# FIGURE 3 Lead peptide RI‐AG03 dose‐response and target specificity. […] (C) Concentration‐dependent inhibition of by Tau^Δ1‐250 by RI‐AG03. […] (E) Concentration‐dependent inhibition of by Tau^2N4R by RI‐AG03. […] (F) log10 scatter graph of Tau^2N4R inhibition by RI‐AG03 employing a curve fitting algorithm to calculate the IC50 at 5 µM. Experiments were conducted in triplicate and error bars were reported as standard deviation. One factor repeated measures ANOVA + Tukey post hoc statistical analysis: p > 0.05, *p ≤ 0.05, **p ≤ 0.01, ***p ≤ 0.001.
# in vitro = conditions: isolated enzyme trypsin
# [1] = test system: Drosophila expressing hTau^2N4R in retinal photoreceptors; test: Drosophila eye experiments (GMR‐hTau^2N4R rough eye, eye size); assay type: in vivo, Drosophila melanogaster
# Method: Drosophila eye experiments: UAS-Tau^2N4R flies (BDSC_51363) were recombined to GMR-GAL4 (BDSC_8605) driver to generate stable GMR-hTau^2N4R lines (BDSC_51361). GMR-GAL4 was used as the “healthy” control. Progeny was reared on standard fly food supplemented with RI-AG03; 0.08, 0.8, 20, and 40 μM at 25°C. As controls, Tau, and driver-alone flies were incubated without the inhibitor. Freshly eclosed flies were monitored daily using a light microscope and 1-day-old live flies were imaged (n = 5/treatment) and processed on ImageJ to measure eye width. Ommaditial disorderliness quantification was done using Flynotyper ImageJ plugin.[48] Quantification of rough eye phenotype: Quantitative analysis of the total distance ommatidial disorderliness index of all stable ommatidia [Odld] was performed using the ImageJ plugin “Flynotyper.”[48] Analysis was performed using images taken by light microscope, and 150 ommatidia were considered and ranked by stability and distance to the center. Between four and five animals per genotype were analyzed. Scanning Electron Microscopy (SEM): Flies were euthanized, fixed in 2.5% glutaraldehyde in PBS, and had three 5-min washes in PBS. Samples were dehydrated for 30-min at each ethanol concentration: 50%, 70%, 80%, 90%, and 100%. Samples were transferred to hexamethyldisilazane for two 30-min changes, after which hexamethyldisilazane was sublimated overnight. […]
# [2] = test system: Tau repeat domain (RD) with the P301S mutation fused to mCer and mClo, HEK293 biosensor cells; test: Tau fibril seeding in FRET Tau biosensor cells; assay type: cell-based, human
# Method: Tau biosensor cells culture: RD P301S Tau biosensor cells have been previously described,[45] and in this case v2L cells were used. Cells were cultured in 10 cm dishes containing Dulbecco's Modified Eagle's Medium (DMEM) (Gibco) enriched with 10% FBS (HyClone), 1% penicillin/streptomycin (Gibco), and 1% GlutaMAX (Gibco) at 37°C with 5% CO2 in a humidified incubator.
# 5 µM of tau fibrils (monomer equivalent) were incubated in PBS with peptide RI‐AG03 or scramble (0–500 µM) at 300 rpm agitation at 4°C for 16 h. The reaction was stopped by flash freezing in liquid nitrogen and stored at –20°C. Tau biosensor cells were plated at a density of 30,000 cells in 120 µL of media per well in a 96‐well plate. After 18 h, using Lipofectamine 2000 cells were transduced with 10 nM of treated fibrils that had been briefly sonicated for 30 s at 65 Amp (QSonica). Lipofectamine complexes were formed in 30 µL consisting of 14.17 µL Opti‐MEM (Gibco), 15 µL of treated fibrils diluted in PBS, and 0.83 µL lipofectamine 2000 (Invitrogen), bringing the total volume to 150 µL. […] Aggregates in Tau biosensors (10,000 minimum) were quantified by FRET flow cytometry in a LSRFortessa SORP (BD Biosciences). To detect the cerulean signal, cells were excited with a 405 nm laser, and fluorescence was captured at […]. For clover signal, cells were excited with a 488 nm laser and fluorescence was detected at 525/50 nm. Flow cytometry data were analyzed using a gating strategy previously described.[45], [47] The percentage of cells with positive FRET signal were quantified. Each condition was analyzed in quadruplicate. […]
# To test RI‐AG03 efficacy in mammalian cells, we utilized a fluorescence resonance energy transfer (FRET) biosensor HEK293 cell line that stably expresses the Tau repeat domain (RD) with the P301S mutation fused to mCer and mClo. These cells[45] or prior generations[71] have been used extensively to quantify Tau seeding activity and measure intracellular aggregation.[71] […] Seeded aggregation was quantified by the percentage of FRET positivity.
smiles,measurement,setting,value
CC[C@@H](C)[C@@H](NC(=O)[C@@H](CCCCNC(C)=O)NC(=O)[C@@H](Cc1ccc(O)cc1)NC(=O)[C@@H](CCCCN)NC(=O)[C@H]1CCCN1C(=O)CNC(=O)[C@@H](CCCNC(=N)N)NC(=O)[C@@H](CCCNC(=N)N)NC(=O)[C@@H](CCCNC(=N)N)NC(=O)[C@@H](CCCNC(=N)N)NC(=O)[C@@H](CCCNC(=N)N)NC(=O)[C@@H](CCCNC(=N)N)NC(=O)[C@@H](CCCNC(=N)N)NC(=O)[C@@H](CCCNC(=N)N)NC(C)=O)C(=O)N[C@H](CCC(N)=O)C(=O)N[C@@H](C(=O)NCC(=O)N[C@H](CCCNC(=N)N)C(N)=O)C(C)C [RI‐AG03] (Ac-[dR][dR][dR][dR][dR][dR][dR][dR]G[dP][dK][dY][dK](Ac)[dI][dQ][dV]G[dR]-NH2),effect on aggregation of VQIINK peptide,VQIINK,dramatically reduced
same,"metabolised at 24 h, 100 µM",in vitro,19%
same,eye size of hTau^2N4R transgenics,"[1]; GMR‐hTau^2N4R flies reared on food with 40 µM RI‐AG03, 25°C, versus untreated, n = 5/treatment",significantly improved
same,"ommatidial disorganization (Odld, Flynotyper)","[1]; GMR‐hTau^2N4R flies treated with RI‐AG03, n=4-5/condition",significantly improved
same,concentrations with peptide‐induced toxicity (decrease in FRET positivity),"[2]; biosensor cells, fibrils preincubated with 0–500 µM peptide, Figure 5C",above 100 µM
same,aggregates (green puncta) in biosensor cells by fluorescence microscopy,"[2]; preformed fibrils incubated with 30 µM peptide, compared with scramble peptide",fewer aggregates
